From ChEMBL document CHEMBL6114959, “Modeling, synthesis and cell-based evaluation of pyridine-substituted analogs of CD3254 and fluorinated analogs of CBt-PMN as novel therapeutics” (Bioorg Med Chem, 2025) come the findings set out here.

The nature of series [1]: Mutagenicity in Saccharomyces cerevisiae D7 incubated for 3 hrs. The series is classed as toxicity.
Series [2] is described as follows: (§1) Cytotoxicity in Saccharomyces cerevisiae D7 incubated for 3 hrs. Format: toxicity, organism-based. The note with it: Saccharomyces cerevisiae D7 cells.
For series [3], the system named is Saccharomyces cerevisiae. Described as §1. The series is classed as toxicity, organism-based. The conditions noted are these: in vivo, 3 h.

The CC50 is the concentration giving 50% cytotoxicity. High values mean lower toxicity to the cells, low ones greater toxicity to the cells.

For `Cc1cc2c(cc1-c1cc(/C=C/C(=O)O)cnc1C)C(C)(C)CCC2(C)C`, the Activity entry in series [1] was “Non-toxic”. The CC50 at 3 h in series [2] was 825 µM.

In the case of `Cc1cc2c(cc1-c1nc(/C=C/C(=O)O)ccc1C)C(C)(C)CCC2(C)C`, the Activity result in series [1] is recorded as “Non-toxic”. In addition, in series [2], it took 228 µM to reach half-maximal cytotoxicity (CC50 at 3 h).

For the compound `Cc1cc2c(cc1-c1cncc(/C=C/C(=O)O)c1)C(C)(C)CCC2(C)C`, the Activity entry in series [1] is “Non-toxic”. For the same compound, it took 440 µM to reach half-maximal cytotoxicity in series [2] (CC50 at 3 h).

On to `Cc1cnc(/C=C/C(=O)O)cc1-c1cc2c(cc1C)C(C)(C)CCC2(C)C`, for which the Activity result in series [1] was “Non-toxic”. Besides, in series [2], the CC50 at 3 h worked out at 228 µM.

Take `Cc1cc2c(cc1-n1c(C(F)(F)F)nc3cc(C(=O)O)ccc31)C(C)(C)CCC2(C)C`: in series [1], the Activity result is on record as “Non-toxic”. In series [2], this compound gave a CC50 at 3 h of 193 µM.

With `C=C(c1ccc(C(=O)O)cc1)c1cc2c(cc1C)C(C)(C)CCC2(C)C` [BEXAROTENE], the Activity entry in series [1] and in series [3] was “Non-toxic” each time.
